# Laboratory results: patent publication US20250304537A1 (Repare Therapeutics Inc., priority 2022, published 2025)
# pIC50: −log10 of the molar value. Like-named read-outs stand apart in the source and are kept apart here.
# Experiments:
# [1] = target: recombinant human Myt1 (full length PKMYT1) (Homo sapiens (Human), UniProt Q99640); assay: Recombinant human Myt1 kinase assay (ADP-Glo); type: biochemical; details: 10 μM ATP
# How it was run: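 Full-length insect-cell-expressed human Myt1 (18 nM final) was preincubated with compound (0.5% DMSO) for 15 min at 22 °C. The reaction ran with 10 μM ATP for 60 min at 30 °C in HEPES buffer with Mg2+/Mn2+ and DTT. ADP formed was read by ADP-Glo luminescence, giving IC50 and % max inhibition.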
# [2] = test system: PKMYT1 (CDK1 pThr14) in FUOV1 cells; assay: PKMYT1 cell-based activity assay, CDK1 pThr14 AlphaLISA in FUOV1 cells; details: read-out: FUOV-1 CDK1 pThr14 IC50
# How it was run: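 FUOV1 cells were treated with PKMYT1 inhibitor for 2 h at 37 °C, then lysed. CDK1 pThr14 was measured by AlphaLISA, pairing an anti-pThr14 antibody with an anti-total CDK1 antibody (5 nM each). Signal read at 680/615 nm and used to derive IC50.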
# Chain of recombinant human Myt1 (full length PKMYT1) (Q99640 whole entry): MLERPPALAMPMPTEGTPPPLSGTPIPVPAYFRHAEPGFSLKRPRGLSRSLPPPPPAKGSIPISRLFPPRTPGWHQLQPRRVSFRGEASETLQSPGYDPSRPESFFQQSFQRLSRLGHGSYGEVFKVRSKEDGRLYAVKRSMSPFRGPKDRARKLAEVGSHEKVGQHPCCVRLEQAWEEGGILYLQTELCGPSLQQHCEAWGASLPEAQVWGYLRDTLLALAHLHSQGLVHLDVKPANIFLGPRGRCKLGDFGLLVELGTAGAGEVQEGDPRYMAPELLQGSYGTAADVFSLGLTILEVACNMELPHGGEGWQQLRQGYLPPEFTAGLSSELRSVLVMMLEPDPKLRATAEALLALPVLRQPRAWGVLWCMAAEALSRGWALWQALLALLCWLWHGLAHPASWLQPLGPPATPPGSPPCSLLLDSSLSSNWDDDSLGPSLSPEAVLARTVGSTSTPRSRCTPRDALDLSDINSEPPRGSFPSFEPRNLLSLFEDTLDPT
SMILES,pIC50 [1],"pIC50 ([2]; 2 h, 2 h compound incubation)","pIC50 ([2]; 2 h, 2 h incubation)","pIC50 ([2]; 2 h, 2 hours with compound)",pIC50 ([2]; 2 h incubation)
Cc1ccc(O)c(C)c1-c1cc(-c2ccnnc2)nc(C(N)=O)c1N [Compound 52],8.10,–,7.35,–,–
Cc1ccc2[nH]ncc2c1-c1cc(-c2ccnnc2)nc(C(N)=O)c1N [Compound 95],7.80,–,5.77,–,–
Cc1ccc(O)c(C)c1-c1cc(-c2cnccn2)cc(C(N)=O)c1N [Compound 84],8.00,–,6.45,–,–
Cc1ccc2[nH]ncc2c1-c1cc(-c2ccc(-c3nccs3)nc2)nc(C(N)=O)c1N [Compound 186],7.33,–,5.77,–,–
Cc1ccc(O)c(C)c1-c1cc(-c2cnccn2)nc(C(N)=O)c1N [Compound 26],8.52,–,7.12,–,–
Cc1ccc2[nH]ncc2c1-c1cc(-c2cnccn2)nc(C(N)=O)c1N [Compound 190],7.70,–,6.07,–,–
"Cc1ccc2[nH]ncc2c1-c1cc(-c2cccc(O[C@@H]3CCOC3)n2)nc(C(N)=O)c1N (atropisomer, axis not shown) [Compound 227, (R)-5-amino-4-(5-methyl-1H-indazol-4-yl)-6′-(((R)-tetrahydrofuran-3-yl)oxy)-[2,2′-bipyridine]-6-carboxamide]",8.70,–,6.70,–,–
Cc1ccc(O)c(C)c1-c1cc(-c2ncccn2)cc(C(N)=O)c1N [Compound 78],8.05,–,6.49,–,–
Cc1ccc2[nH]ncc2c1-c1nc(-c2ccc(C(=O)O)cc2)nc(C(N)=O)c1N [Compound 146],7.64,–,< 5.00,–,–
Cc1ccc(O)c(C)c1-c1cc(-c2ccco2)nc(C(N)=O)c1N [Compound 50],8.22,–,6.43,–,–
Cc1ccc(O)c(C)c1-c1cc(-c2cncs2)nc(C(N)=O)c1N [Compound 90],8.52,–,–,–,7.24
CSc1nccc(-c2cc(-c3c(C)ccc4[nH]ncc34)c(N)c(C(N)=O)n2)n1 [Compound 167],8.10,–,6.38,–,–
Cc1ccc(O)c(C)c1-c1cc(-c2cccc(C(N)=O)c2)nc(C(N)=O)c1N [Compound 51],8.10,–,6.45,–,–
Cc1ccc2[nH]ncc2c1-c1cc(-c2ccnc(OCc3ncccn3)n2)nc(C(N)=O)c1N [Compound 235],8.15,–,7.41,–,–
Cc1ccc(O)c(C)c1-c1cc(-c2ccns2)cc(C(N)=O)c1N [Compound 92],8.30,–,6.88,–,–
Cc1ccc(O)c(C)c1-c1cc(-c2nccc3ccccc23)nc(C(N)=O)c1N [Compound 48],7.26,–,5.11,–,–
"COCCNc1nccc(-c2cc(-c3c(C)ccc4[nH]ncc34)c(N)c(C(N)=O)n2)n1 [Compound 214, 3-amino-6-(2-((2-methoxyethyl)amino)pyrimidin-4-yl)-4-(5-methyl-1H-indazol-4-yl)picolinamide]",8.30,–,6.35,–,–
Cc1ccc2[nH]ncc2c1-c1cc(-c2cccc(OCCN3CCOCC3)n2)nc(C(N)=O)c1N [Compound 185],8.15,–,6.43,–,–
Cc1ccc(O)c(C)c1-c1cc(-c2cccc(OC3CCOCC3)n2)nc(C(N)=O)c1N [Compound 94],8.70,–,–,–,7.51
CNCCOc1nccc(-c2cc(-c3c(C)ccc4[nH]ncc34)c(N)c(C(N)=O)n2)n1 [Compound 210],8.00,–,6.47,–,–
Cc1ccc(O)c(C)c1-c1cc(-c2ccnnc2)cc(C(N)=O)c1N [Compound 93],7.60,–,6.03,–,–
Cc1ccc2[nH]ncc2c1-c1cc(-c2cncs2)nc(C(N)=O)c1N [Compound 85],7.66,–,5.84,–,–
CC(=O)Nc1cccc(-c2cc(-c3c(C)ccc(O)c3C)c(N)c(C(N)=O)n2)c1 [Compound 49],8.22,–,6.86,–,–
"Cc1ccc2[nH]ncc2c1-c1cc(-c2ccnc(Sc3ccccc3)n2)nc(C(N)=O)c1N [Compound 177, 3-amino-4-(5-methyl-1H-indazol-4-yl)-6-(2-(phenylthio)pyrimidin-4-yl)picolinamide]",7.89,–,6.46,–,–
Cc1ccc(O)c(C)c1-c1cc(-c2cncnc2)nc(C(N)=O)c1N [Compound 71],8.05,–,6.53,–,–
Cc1ccc(O)c(C)c1-c1cc(-c2nc3ccccc3o2)nc(C(N)=O)c1N [Compound 56],8.15,–,6.43,–,–
"Cc1ccc(O)cc1-c1nc(-c2ccccc2)nc(C(N)=O)c1N [Compound 2, 5-amino-6-(5-hydroxy-2-methylphenyl)-2-phenylpyrimidine-4-carboxamide]",7.96,–,6.29,–,–
Cc1ccc2[nH]ncc2c1-c1cc(-c2cccc(OCCN3CCNCC3)n2)nc(C(N)=O)c1N [Compound 183],7.89,–,6.55,–,–

# More lines, now with the values ahead:
pIC50 [1],"pIC50 ([2]; 2 h, 2 h compound incubation)","pIC50 ([2]; 2 h, 2 h incubation)","pIC50 ([2]; 2 h, 2 hours with compound)",pIC50 ([2]; 2 h incubation),SMILES
7.72,6.43,–,–,–,Cc1ccc2[nH]ncc2c1-c1nc(-c2ccccc2NC(=O)[C@]2(C)CCCN2)nc(C(N)=O)c1N [Compound 422]
8.40,–,–,7.24,–,Cc1ccc2[nH]ncc2c1-c1nc(-c2cn(C)nc2NC2CCOCC2)nc(C(N)=O)c1N [Compound 845]
7.68,7.66,–,–,–,Cc1ccc2[nH]ncc2c1-c1nc(-c2ccc(F)cc2Nc2ncccc2Cl)nc(C(N)=O)c1N [Compound 611]
7.92,–,5.93,–,–,Cc1ccc2[nH]ncc2c1-c1cc(-c2cc(Cl)ccn2)nc(C(N)=O)c1N [Compound 257]
8.10,8.10,–,–,–,Cc1ccc2[nH]ncc2c1-c1nc(-c2ccccc2N[C@H](C)C(F)(F)F)nc(C(N)=O)c1N [Compound 430]
8.40,8.00,–,–,–,Cc1cccnc1Nc1ncccc1-c1nc(C(N)=O)c(N)c(-c2c(C)ccc3[nH]ncc23)n1 [Compound 622]
8.70,8.70,–,–,–,"Cc1ccc2[nH]ncc2c1-c1nc(-c2ccncc2NC(=O)C(C)(C)C)nc(C(N)=O)c1N [Compound 483, 5-amino-6-(5-methyl-1H-indazol-4-yl)-2-(3-pivalamidopyridin-4-yl)pyrimidine-4-carboxamide]"
8.15,7.28,–,–,–,Cc1ccc2[nH]ncc2c1-c1nc(-c2cc(F)c(F)cc2NC2CCN(C)CC2)nc(C(N)=O)c1N [Compound 485]
7.96,6.72,–,–,–,Cc1ccnc(Nc2cc(F)ccc2-c2nc(C(N)=O)c(N)c(-c3c(C)ccc4[nH]ncc34)n2)c1 [Compound 616]
7.89,–,6.63,–,–,Cc1ccc2[nH]ncc2c1-c1cc(-c2ccnc(OCCO)n2)nc(C(N)=O)c1N [Compound 299]
8.52,6.43,–,–,–,COCCNc1ccccc1-c1nc(C(N)=O)c(N)c(-c2c(C)ccc3[nH]ncc23)n1 [Compound 464]
8.30,7.28,–,–,–,Cc1ccc2[nH]ncc2c1-c1nc(-c2ccccc2NC(C)C(F)(F)F)cc(C(N)=O)c1N (stereo not shown) [Compound 406]
8.30,6.74,–,–,–,Cc1ccc2[nH]ncc2c1-c1nc(-c2ccccc2NCC(F)(F)F)cc(C(N)=O)c1N [Compound 413]
8.52,7.60,–,–,–,Cc1ccc2[nH]ncc2c1-c1nc(-c2ccccc2NC2CC2)nc(C(N)=O)c1N [Compound 476]
8.52,8.30,–,–,–,Cc1ccc2[nH]ncc2c1-c1nc(-c2cc(F)ccc2NC(=O)C2(C)CC2)nc(C(N)=O)c1N [Compound 447]
8.15,7.66,–,–,–,Cc1ccc2[nH]ncc2c1-c1nc(-c2ccccc2NC(=O)C2(C)CCC2)nc(C(N)=O)c1N [Compound 416]
8.30,6.94,–,–,–,Cc1ccc2[nH]ncc2c1-c1nc(-c2cc(F)ccc2NS(=O)(=O)C2(C)CC2)nc(C(N)=O)c1N [Compound 482]
6.91,5.61,–,–,–,Cc1ccc2[nH]ncc2c1-c1nc(-c2ccccc2C(F)F)nc(C(N)=O)c1N [Compound 414]
> 8.52,–,–,6.10,–,Cc1ccc2[nH]ncc2c1-c1nc(-c2cccnc2NC(C)(C)C2CCCO2)nc(C(N)=O)c1N (stereo not shown) [Compound 881]
8.22,6.50,–,–,–,Cc1ccc2[nH]ncc2c1-c1nc(-c2cccnc2Nc2ccccc2)nc(C(N)=O)c1N [Compound 607]
8.22,–,6.86,–,–,Cc1ccc2[nH]ncc2c1-c1cc(-c2ccnc(OCCc3nccs3)n2)nc(C(N)=O)c1N [Compound 313]
7.85,–,–,< 5.00,–,Cc1ccc2[nH]ncc2c1-c1nc(-c2ccccc2-c2ncc[nH]2)nc(C(N)=O)c1N [Compound 808]
6.15,–,–,–,5.34,"Cc1ccc2[nH]ncc2c1-c1cc(-c2cccc(OCc3ncco3)n2)nc(C(N)=O)c1N (atropisomer, axis not shown) [Compound 273]"
7.80,6.29,–,–,–,Cc1ccc2[nH]ncc2c1-c1nc(-c2ccc(F)cc2Nc2cc(C3CC3)ncn2)nc(C(N)=O)c1N [Compound 615]
8.40,6.75,–,–,–,Cc1ccc2[nH]ncc2c1-c1nc(-c2cccnc2Nc2cccnc2C)nc(C(N)=O)c1N [Compound 623]
8.40,7.31,–,–,–,Cc1ccc2[nH]ncc2c1-c1nc(-c2ccccc2NC(C)C)nc(C(N)=O)c1N [Compound 419]
8.05,–,6.22,–,–,Cc1ccc2[nH]ncc2c1-c1cc(-c2ccnc(OCCc3ccn(C)n3)n2)nc(C(N)=O)c1N [Compound 312]
8.22,–,6.26,–,–,Cc1ccc2[nH]ncc2c1-c1cc(-c2cccc(OCc3nccs3)n2)nc(C(N)=O)c1N [Compound 261]
